Results taken from patent US8778886B2, “Methods of making and using a cell penetrating peptide for enhanced delivery of nucleic acids, proteins, drugs, and adenovirus to tissues and cells, and compositions and kits” (Tufts University, priority 2007, dated 2014).
Residues, ends and D or L forms follow the SMILES beside them. No end group written: not given here. *: point of attachment. FITC = O=C1OC2(c3ccc(O)cc3Oc3cc(O)ccc32)c2ccc(NC(=S)*)cc21

Experiments:
[1] = test system: Human embryonic retinal (HER) 911 cells; experiment: L-POD uptake by HER cells (microscopy, lissamine-positive cells by FACS); format: cell-based
Procedure: (§1) HER cells were seeded on Lab Tek-II chamber slides and grown to about 70% confluence. Cells were washed twice with PBS and incubated with […] L-POD for 0, 5, 15, 30, 45, and 60 minutes or 1 nmol Lissamine only for 60 minutes. Cells were fixed for 15 minutes in formalin at room temperature. Cells for live imaging were grown on 24 well plates and incubated with […] of L-POD. Following incubation, cells were washed three times with PBS, incubated in phenol red-free DMEM supplemented with 2% FBS. Cells were visualized by light and fluorescent microscopy using either an Olympus IX51 (live cells) or an Olympus BX51 (fixed cells) with DIC, RFP, and GFP filters. Images were obtained using a Retiga 2000R FAST camera and QCapture Pro 5.0 (QImaging, BC, Canada). To measure L-POD uptake in the presence of trypsin, 0.2×10^6 HER cells were incubated with 2.0 nmole L-POD in media for 15 minutes at 37° C. followed by incubation in 2.5 mg/ml trypsin for 12 minutes at 37° C. For analysis of uptake at 4° C., cells were cooled to 4° C. for 45 minutes prior to the addition of peptide and cold (4° C.) reagents were used for peptide administration. Following incubation with peptide, cells were washed twice with PBS and spun and resuspended in PBS for FACS analysis. For measurement of membrane permeabilization, HER cells were incubated with 2.0 nmole FITC-HBP for 30 minutes at 37° C., washed twice, isolated, and suspended in PBS with 1 μM PI. The number of PI-positive cells was analyzed by FACS. FACS analysis was performed using a FACSCalibur (Becton Dickinson). Examples were performed in triplicate and 10,000 events per sample were counted. Results were analyzed using CellQuest Pro software (Becton Dickinson).
Human embryonic retinal (HER) 911 cells [Fallaux F J et al. 1996 Hum. Gene Ther. 7: 215-222] incubated with […] (8 μM) lissamine-conjugated POD (L-POD), followed by formalin fixation, became […] to 558 nm excitation (emission measured at 583 nm) within 1 min and appeared normal in bright field (FIG. 1 panel A). Within 5 min, L-POD was seen within the cytoplasm with both a diffuse cytoplasmic and slightly punctate pattern (Figure panel A).
To determine whether L-POD was internalized or was non-specifically associated with the plasma membrane, HER cells incubated with 2 nmoles (8 μM) L-POD for 15 min were treated with trypsin at 37° C. prior to counting of lissamine-positive cells by FACS. […] Sensitivity of POD peptide to trypsin-mediated digestion was confirmed by incubation of […] of C-POD with trypsin prior to loading on an acrylamide gel (inset FIG. 1 panel C). Whereas 92.23±0.65% of HER cells were lissamine-positive when incubated with L-POD at 37° C., only 48.74±2.32% of cells were lissamine-positive when incubated with L-POD at 4° C. (FIG. 1 panel D).

[2] = test system: HER cells; experiment: Inhibition of L-POD uptake by proteoglycans; format: cell-based, human
Procedure: (§2) Lissamine conjugated POD (L-POD) and either heparan sulfate or chondroitan sulfate were incubated together at each of molar ratios of 1:3.33, 1:6.67, and 1:8 in water for 30 minutes at room temperature. The complex was diluted in DMEM+2% FBS and added to 0.2×]06 HER cells for 5 minutes at 37° C. Following incubation, cells were trypsinized and suspended in PBS for FACS analysis as described above. To measure microbicidal activity of C-POD, XL-1 Blue cells (Stratagene, La Jolla, Calif.) were grown to mid logarithmic phase (OD600=0.600) and washed twice in a solution of 10 mM Tris, pH 7.4 and 5 mM Glucose. The cells were resuspended in 10 mL of the same solution and […] of the suspension was incubated with C-POD in a final volume of 50 μL. The peptide/bacteria cell solution was rocked for 2 hours at 37° C. The peptide-treated bacteria was diluted 1:4500 with LB broth, plated on agar, and grown overnight at 37° C. The following day, the bacterial colonies on each plate were counted to quantify peptide-related reduction in growth.
To determine whether L-POD uses cell surface proteoglycans for binding and cell entry, L-POD was pre incubated with different amounts of either of the proteoglycans chondroitin sulfate or heparan sulfate, prior to addition to HER cells. Based on data from preliminary studies, ratios of L-POD:proteoglycan of 1:3.33, 1:6.67 and 1:8 were selected.
In contrast, the uptake of a TRITC-conjugated peptide containing an integrin-binding RGD motif was not affected by pre-incubation with either proteoglycan (FIG. 3 panel A).

[3] = test system: neural retina; experiment: Subretinal / intravitreal delivery of L-POD and QDPOD to retina in vivo; design: species or system C57BL/6J mice; conditions: 2 hours
Procedure: The use of animals in this work was in accordance with the ARVO Statement for the Use of Animals in Ophthalmic and Vision Research. C57BL/6J mice were purchased from Jackson Laboratories, bred and maintained in a 12-hour light-dark cycle and cared for in accordance with federal, state and local regulations. For each Example herein at least 4 mice (8 eyes) were investigated, yielding roughly similar results. Mice were anesthetized by […] injection of xylazine (10 mg/ml)/ketamine (1 mg/ml). Subretinal or intravitreal injections were performed with a 32 G needle attached to a 5 μl glass syringe (Hamilton) by a trans scleral trans choroidal approach to deliver 0.25 nmole of L-POD per eye. For topical delivery to cornea, male C57BL6/6J mice at 6 weeks of age were anesthetized by intraperitoneal injection of ketamine/xylazine and 10 nmoles of either L-POD or lissamine only were dropped on the cornea and incubated for 45 minutes or 24 hours. Upon completion of the treatment, the animal was sacrificed by CO2 inhalation followed by cervical dislocation and the eyes harvested and washed three times in PBS. Fluorescent and bright field images were taken of each eye using a Nikon C-FMC microscope prior to fixation. Eyes were fixed overnight at 4° C. in 4% paraformaldehyde and embedded in Optimal Cutting Temperature Compound and 14 μm sections were collected using a Microm 550 cryostat. […]

[4] = test system: cornea, sclera, optic nerve; experiment: Topical application of L-POD to whole mouse eye in vivo; design: species or system C57BL6/6J mice; conditions: for staining of external ocular tissues: topical, 10 nmol, 45 min
Procedure: The use of animals in this work was in accordance with the ARVO Statement for the Use of Animals in Ophthalmic and Vision Research. C57BL/6J mice were purchased from Jackson Laboratories, bred and maintained in a 12-hour light-dark cycle and cared for in accordance with federal, state and local regulations. For each Example herein at least 4 mice (8 eyes) were investigated, yielding roughly similar results. Mice were anesthetized by […] injection of xylazine (10 mg/ml)/ketamine (1 mg/ml). Subretinal or intravitreal injections were performed with a 32 G needle attached to a 5 μl glass syringe (Hamilton) by a trans scleral trans choroidal approach to deliver 0.25 nmole of L-POD per eye. For topical delivery to cornea, male C57BL6/6J mice at 6 weeks of age were anesthetized by intraperitoneal injection of ketamine/xylazine and 10 nmoles of either L-POD or lissamine only were dropped on the cornea and incubated for 45 minutes or 24 hours. Upon completion of the treatment, the animal was sacrificed by CO2 inhalation followed by cervical dislocation and the eyes harvested and washed three times in PBS. Fluorescent and bright field images were taken of each eye using a Nikon C-FMC microscope prior to fixation. Eyes were fixed overnight at 4° C. in 4% paraformaldehyde and embedded in Optimal Cutting Temperature Compound and 14 μm sections were collected using a Microm 550 cryostat.
To assess penetration of the cornea and sclera with L-POD, whole mouse eye was incubated in vivo with 10 nmol L-POD for 45 min followed by harvesting of ocular tissues.

[5] = test system: HER cells; experiment: Membrane permeabilization, propidium iodide uptake after F-POD; format: cell-based, human; conditions: FACS, F-POD 0.2 to 2.0 μM (average), Triton-X100 1%
Procedure: as §1, with “Following incubation with peptide, cells were washed twice with PBS and spun and resuspended in PBS for FACS analysis. For measurement of membrane permeabilization, HER cells were incubated with 2.0 nmole FITC-HBP for 30 minutes at 37° C., washed twice, isolated, and suspended in PBS with 1 μM PI.” left out, “FACS analysis was performed using a FACSCalibur (Becton Dickinson).” left out, “Dickinson). […]” for “Dickinson).”

[6] = test system: E. coli; experiment: Microbicidal activity, colony count after plating; format: cell-based; conditions: 2 hours at 37° C., plating on LB agar
Procedure: as §2
Since endophthalmitis, an infection within the eye, is regularly a complicating factor in drug delivery to ocular tissues [Ho J et al. 2007 Int Opthalmol Clin 47: 199-208], C-POD was examined for potential microbicidal activities. E. coli cells grown to mid-log phase were incubated with either H20 only or C-POD suspended in H20 at concentrations ranging from 0.03 μM to 60 μM, and cell number was determined by plating samples on LB agar. […] Greater concentrations of C-POD completely eliminated bacterial growth.

Molecule: L-POD: N terminal lissamine conjugated GGG(ARKKAAKA)4 (SEQ ID NO: 1) (lissamine-GGGARKKAAKAARKKAAKAARKKAAKAARKKAAKA)
- lissamine-positive cells ([1]; 2 nmoles (8 μM) L-POD 15 min, with incubation with trypsin): 90.10±1.89%
- lissamine-positive cells ([1]; 2 nmoles (8 μM) L-POD 15 min, without incubation with trypsin): 92.23±0.65%
- time until L-POD was seen within the cytoplasm ([1]; 2 nmoles (8 μM) L-POD, formalin fixation): ≤ 5 min
- uptake of L-POD in the presence of inhibitors of endocytosis ([1]; chlorpromazine, genistein, filipin): no significant reduction
- lissamine-positive cells ([1]; incubated with L-POD at 4° C.): 48.74±2.32%
- lissamine-positive cells ([1]; incubated with L-POD at 37° C.): 92.23±0.65%
- uptake of L-POD (lissamine-positive cells) ([2]; chondroitin sulfate, 1:6.67): 59.43±1.55%
- uptake of L-POD (lissamine-positive cells) ([2]; chondroitin sulfate, 1:8): 34.38±3.13%
- uptake of L-POD (lissamine-positive cells) ([2]; chondroitin sulfate, L-POD:proteoglycan 1:3.33): 71.24±1.77%
- uptake of L-POD (lissamine-positive cells) ([2]; heparan sulfate, 1:3.33): 78.60±0.35%
- uptake of L-POD (lissamine-positive cells) ([2]; heparan sulfate, 1:6.67): 57.78±2.83%
- uptake of L-POD (lissamine-positive cells) ([2]; heparan sulfate, 1:8): 44.37±2.17%
- lissamine-positive cells ([2]; without pre incubation with any proteoglycan): 90.07±0.64%
- transduction of neural retina ([3]; intravitreal): approximately 85%
- transduction of neural retina ([3]; subretinal): approximately 40%
- time to reach the optic nerve ([4]; administered topically): ≤ 45 min
- staining of external ocular tissues [4]: bound strongly to the cornea, sclera and unexpectedly, also the optic nerve

Molecule: C[C@H](NC(=O)[C@H](CCCCN)NC(=O)[C@H](C)NC(=O)[C@H](C)NC(=O)[C@H](CCCCN)NC(=O)[C@H](CCCCN)NC(=O)[C@H](CCCNC(=N)N)NC(=O)[C@H](C)NC(=O)[C@H](C)NC(=O)[C@H](CCCCN)NC(=O)[C@H](C)NC(=O)[C@H](C)NC(=O)[C@H](CCCCN)NC(=O)[C@H](CCCCN)NC(=O)[C@H](CCCNC(=N)N)NC(=O)[C@H](C)NC(=O)[C@H](C)NC(=O)[C@H](CCCCN)NC(=O)[C@H](C)NC(=O)[C@H](C)NC(=O)[C@H](CCCCN)NC(=O)[C@H](CCCCN)NC(=O)[C@H](CCCNC(=N)N)NC(=O)[C@H](C)NC(=O)[C@H](C)NC(=O)[C@H](CCCCN)NC(=O)[C@H](C)NC(=O)[C@H](C)NC(=O)[C@H](CCCCN)NC(=O)[C@H](CCCCN)NC(=O)[C@H](CCCNC(=N)N)NC(=O)[C@H](C)NC(=O)CNC(=O)CNC(=O)CNC(=S)Nc1ccc2c(c1)C(=O)OC21c2ccc(O)cc2Oc2cc(O)ccc21)C(=O)O [F-POD] ({FITC}-GGGARKKAAKAARKKAAKAARKKAAKAARKKAAKA-OH)
- PI-positive cells [5]: 3.98±0.70%

Molecule: lissamine [reference compound]
- uptake by HER cells (microscopy) ([1]; lissamine only, fixed cells): no evidence of uptake
- staining of external ocular tissues [4]: weakly stained the cornea and sclera and did not stain the optic nerve

Molecule: GGG(ARKKAAKA)4 [POD]
- concentration giving significant inhibition of bacterial growth [6]: 0.3 µM

Molecule: Triton-X100 [reference compound]
- PI-positive cells [5]: 91.44±9.66%
